Reference: patent US10947188B2, “Small molecule ferroptosis inducers” (THE TRUSTEES OF COLUMBIA UNIVERSITY IN THE CITY OF NEW YORK, priority 2016, dated 2021)

System: HT-1080
Experiment: Modulatory profiling: Alamar Blue viability, lethal compound cotreated with death modulator (EC50, AUC)
Assay type: cell-based
Set-up: AUC, modulator HT.3MA / AUC, modulator HT.ALLN / AUC HT.ATA / AUC HT.ActD / AUC HT.BHA / AUC HT.BHT / AUC HT.BocD / AUC HT.CHX / AUC HT.Co2+ / AUC HT.DPQ / AUC HT.EGTA / AUC HT.Lmim / AUC HT.NAD+ / AUC HT.Nec-1 / AUC HT.SP600125 / AUC HT.TLCK / AUC HT.U0126: unit not given beside the values
Conditions: for AUC HT.ATA: HT-1080, modulator ATA; for AUC HT.ActD: HT-1080, modulator ActD; for AUC HT.BHA: HT-1080, modulator BHA; for AUC HT.BHT: HT-1080, modulator BHT; for AUC HT.BocD: HT-1080, modulator BocD; for AUC HT.CHX: HT-1080, modulator CHX; for AUC HT.Co2+: HT-1080, modulator Co2+; for AUC HT.CspA: HT-1080, modulator CspA; for AUC HT.DPQ: HT-1080, modulator DPQ; for AUC HT.EGTA: HT-1080, modulator EGTA; for AUC HT.Gd3+: HT-1080, modulator Gd3+; for AUC HT.LNAME: HT-1080, modulator LNAME; for AUC HT.Lmim: HT-1080, modulator Lmim; for AUC HT.NAD+: HT-1080, modulator NAD+; for AUC HT.NMMA: HT-1080, modulator NMMA; for AUC HT.Nec-1: HT-1080, modulator Nec-1; for AUC HT.Pepstatin: HT-1080, modulator Pepstatin; for AUC HT.SP600125: HT-1080, modulator SP600125; for AUC HT.TLCK: HT-1080, modulator TLCK; for AUC HT.U0126: HT-1080, modulator U0126; for HT.atoc (AUC) / HT.bCarotene (AUC) / HT.deferox (AUC) / HT.digoxin (AUC) / HT.trolox (AUC) / HT.zVAD (AUC): HT-1080; for HT.atoc (AUC): modulator atoc; for HT.bCarotene (AUC): modulator bCarotene; for HT.deferox (AUC): modulator deferox; for HT.digoxin (AUC): modulator digoxin; for HT.trolox (AUC): modulator trolox; for HT.zVAD (AUC): modulator zVAD; for AUC, modulator HT.3MA / AUC, modulator HT.ALLN: HT-1080 cells, modulatory profile value (AUC); for AUC, modulator HT.3MA: lethal compound cotreated with modulator 3MA; for AUC, modulator HT.ALLN: lethal compound cotreated with modulator ALLN

Compound	AUC HT.ATA	AUC HT.ActD	AUC HT.BHA	AUC HT.BHT	AUC HT.BocD	AUC HT.CHX	AUC HT.Co2+	AUC HT.CspA	AUC HT.DPQ	AUC HT.EGTA	AUC HT.Gd3+	AUC HT.LNAME	AUC HT.Lmim	AUC HT.NAD+	AUC HT.NMMA	HT.atoc (AUC)	HT.bCarotene (AUC)	HT.deferox (AUC)	HT.digoxin (AUC)	HT.trolox (AUC)	also measured
CC[C@@]1(O)C(=O)OCc2c1cc1n(c2=O)Cc2cc3ccccc3nc2-1 [Camptothecin]	−0.00483	−0.1287	0.04861	−0.08411	0.03455	0.0562	0.1416	−0.1552	0.008143	0.01652	0.02887	0.01135	0.0722	0.06078	0.01978	0.004008	0.002837	0.1288	0.1442	0.01719	AUC HT.Nec-1: 0.01102; AUC HT.Pepstatin: 0.005918; AUC HT.SP600125: 0.02319; AUC HT.TLCK: 0.04383; AUC HT.U0126: 0.0002717; HT.zVAD (AUC): 0.03249; AUC, modulator HT.3MA: 0.0192; AUC, modulator HT.ALLN: 0.03354
COc1cc2c(c(OC)c1OC)-c1ccc(OC)c(=O)cc1[C@@H](NC(C)=O)CC2 [Colchicine]	0.1325	0.01343	0.01506	−0.006747	0.1264	0.04333	0.1098	−0.1209	0.01511	−0.000119	0.01351	0.008236	0.1199	0.1471	0.008585	−0.0173	0.01723	0.2984	0.1359	0.01591	AUC HT.Nec-1: 0.01661; AUC HT.Pepstatin: 0.004413; AUC HT.SP600125: −0.02858; AUC HT.TLCK: 0.0306; AUC HT.U0126: 0.2237; HT.zVAD (AUC): 0.134; AUC, modulator HT.3MA: 0.01861; AUC, modulator HT.ALLN: 0.1932
CN(C)CCCOS(=O)(=O)c1ccc(N2CCC(c3ccc(Cl)cc3)=N2)cc1 [CIL40]	0.06692	−0.06544	−0.09372	−0.1505	0.01176	−0.02863	0.04911	−0.04697	0.04908	−0.02642	−0.0186	−0.01999	0.0004825	−0.04749	−0.006901	0.1232	−0.01785	−0.08111	−0.03539	−0.02768	HT.zVAD (AUC): 0.01717; AUC, modulator HT.3MA: 0.0807; AUC, modulator HT.ALLN: 0.1761
COc1cc([C@@H]2c3cc4c(cc3[C@H](O)[C@H]3COC(=O)[C@H]23)OCO4)cc(OC)c1OC [Podophyllotoxin]	0.1206	−0.0009195	0.02739	0.0008586	0.0984	0.07197	0.1102	−0.07592	0.005964	0.01145	0.00916	−0.004926	0.1098	0.1318	0.000472	−0.02023	0.0009225	0.3104	0.1098	0.0103	AUC HT.Nec-1: −0.0001825; AUC HT.Pepstatin: −0.0005129; AUC HT.SP600125: −0.02768; AUC HT.TLCK: 0.06978; AUC HT.U0126: 0.1354; HT.zVAD (AUC): 0.09402; AUC, modulator HT.3MA: 0.001351; AUC, modulator HT.ALLN: 0.1572
CCCCNc1cc(C)nc(NCc2ccccc2)n1 [CIL18]	0.001415	0.0184	−0.08703	−0.1394	0.06607	0.1179	0.1598	−0.04827	−0.01276	−0.009461	−0.03302	0.01329	−0.004987	0.09493	−0.02918	0.1295	−0.0001406	−0.009951	−0.004198	−0.01205	HT.zVAD (AUC): 0.0101; AUC, modulator HT.3MA: 0.01461; AUC, modulator HT.ALLN: 0.07303
CCOc1ccccc1-n1c(C(C)N2CCN(C(=O)COc3ccc(Cl)cc3)CC2)nc2ccccc2c1=O (centres unmarked) [erastin, reference compound]	−0.1315	−0.1111	0.1748	0.1243	−0.003341	0.05504	−0.2142	0.02449	0.05672	0.01444	−0.01326	−0.008731	0.2178	−0.02996	0.006826	0.2643	−0.0215	0.3025	−0.03393	0.2077	AUC HT.Nec-1: −0.02551; AUC HT.Pepstatin: −0.02573; AUC HT.SP600125: −0.03688; AUC HT.TLCK: 0.1167; AUC HT.U0126: 0.1525; HT.zVAD (AUC): −0.07207; AUC, modulator HT.3MA: −0.04578; AUC, modulator HT.ALLN: −0.06856
COc1cccc2c1C(=O)c1c(O)c3c(c(O)c1C2=O)C[C@@](O)(C(=O)CO)C[C@@H]3O[C@H]1C[C@H](N)[C@H](O)[C@H](C)O1 [Doxorubicin]	0.02841	0.007993	0.02167	−0.06815	0.05959	0.08993	0.2627	−0.1098	0.01107	0.03492	0.03741	0.006685	0.08822	0.1872	0.02832	0.00993	0.01512	0.2044	0.1981	−0.01413	AUC HT.Nec-1: 0.007577; AUC HT.Pepstatin: 0.008958; AUC HT.SP600125: −0.02148; AUC HT.TLCK: 0.0633; AUC HT.U0126: −0.02036; HT.zVAD (AUC): 0.05138; AUC, modulator HT.3MA: 0.03088; AUC, modulator HT.ALLN: 0.03102
O=c1c(N2CCCC2)c(Cl)cnn1-c1ccccc1 [CIL20]	−0.001276	−0.006608	0.0001715	−0.08075	0.01009	0.1212	0.1205	−0.05648	−0.03779	−0.01805	−0.02607	0.01703	0.002914	0.05985	−0.0209	0.0292	0.008618	0.03912	0.01851	0.03002	HT.zVAD (AUC): −0.02079; AUC, modulator HT.3MA: 0.004881; AUC, modulator HT.ALLN: 0.09673
O=P(Oc1ccccc1)(Oc1ccccc1)O[C@@H]1C=CS(=O)(=O)C1 [CIL44]	0.0592	0.01649	−0.02559	−0.1007	−0.0552	0.02874	−0.04658	−0.01586	−0.01669	−0.007267	−0.01147	−0.02505	−0.007614	−0.07144	−0.0419	0.04386	−0.02012	0.1041	0.01992	−0.02106	HT.zVAD (AUC): 0.01751; AUC, modulator HT.3MA: 0.07356; AUC, modulator HT.ALLN: 0.1392
CC[C@]1(O)C[C@@H]2CN(CCc3c([nH]c4ccccc34)[C@@](C(=O)OC)(c3cc4c(cc3OC)N(C)[C@H]3[C@@](O)(C(=O)OC)[C@H](OC(C)=O)[C@]5(CC)C=CCN6CC[C@]43[C@@H]65)C2)C1 [Vinbiastine]	0.09963	0.05584	−0.01651	0.01379	0.1256	0.06309	0.2269	−0.1335	0.003688	0.01055	−0.002557	−0.01231	0.126	0.1682	−0.003516	0.1573	0.001945	0.2847	0.1245	−0.001959	AUC HT.Nec-1: −0.005874; AUC HT.Pepstatin: −0.0004474; AUC HT.SP600125: 0.002862; AUC HT.TLCK: 0.002362; AUC HT.U0126: 0.1372; HT.zVAD (AUC): 0.08924; AUC, modulator HT.3MA: 0.05249; AUC, modulator HT.ALLN: 0.1527
